One compound from patent publication CN105311047A, “一种替米考星药物包合物及其制备和应用” (Luoyang Huizhong Animal Medicine Co Ltd, priority 2014, dated 2016) can be followed below.

The series is described as follows: In vitro sustained-release test (dialysis bag, phosphate buffer, UV 287 nm). Conditions: after 24 h (24h以后); phosphate buffer pH 6.86, 37±0.5 ℃, 100 r/min. Format: physicochemical.

Turning to `CC[C@H]1OC(=O)C[C@@H](O)[C@H](C)[C@@H](O[C@@H]2O[C@H](C)[C@@H](O)[C@H](N(C)C)[C@H]2O)[C@@H](CCN2C[C@H](C)C[C@H](C)C2)C[C@@H](C)C(=O)/C=C/C(C)=C/[C@@H]1CO[C@@H]1O[C@H](C)[C@@H](O)[C@@H](OC)[C@H]1OC` [替米考星原粉, 替米考星], the release rate was > 95%.
